What follows are compounds tested against T1, recombinant autotaxin (Homo sapiens, UniProt Q13822) (assay: Autotaxin test (enzyme test), Amplex Red fluorescence). Details: substrate LPC 75 μM, Amplex Red detection, read-out: IC50 (autotaxin inhibition, enzyme test).
T1 construct: made in house; host or cells: Hi5 insect cells (baculovirus)
Format: biochemical
Experimental: Autotaxin Inhibition (Enzyme Test)
Autotaxin Test (Enzyme Test)
The autotaxin activity is measured indirectly using Amplex Red reagent. Amplex Red is measured here as fluorogenic indicator for the H2O2 formed. In detail, autotaxin converts the substrate lysophosphatidylcholine (LPC) into phosphocholine and lysophosphatidylic acid (LPA). After this reaction, the phosphocholine is reacted with alkaline phosphatase to give inorganic phosphate and choline. In the next step, choline is oxidised by choline oxidase to give betaine, with formation of H2O2. H2O2 reacts with Amplex Red reagent in the presence of peroxidase (horseradish peroxidase) in a 1:1 stoichiometry and forms the highly fluorescent resorufin. The fluorescence is measured in a reaction-dependent kinetic mode in order that fluorescent signals from possible other fluorescent substances which are not involved in the reaction can be corrected out.
1.5 μl of a standard solution or of the test substances (substances with the name A(n)) in individual concentrations dissolved in 20 mM Hepes pH 7.2 with a maximum of 7.7% of DMSO are pre-incubated together with 10 μl (16 ng) of highly purified recombinant autotaxin in a black microtitre plate provided with 384 wells at 22° C. for 30 min. The reaction is then initiated by addition of 5 μl of L-α-lysophosphatidylcholine (LPC), where the final concentration of LPC is 75 μM. The mixture is incubated at 37° C. for 90 min. After the incubation, Amplex Red reagent, peroxidase (horseradish peroxidase) and choline oxidase is added, and the fluorescence is immediately measured at 612 nm with excitation of 485 nm in a “Tecan Ultra multimode” reader. The activity of autotaxin is calculated indirectly via detection of the H2O2 formed. • Material: • Microtitre plate: PS microplate, 384 wells, small volume, black Corning, Cat #3677 • Protein: recombinant autotaxin (Baculovirale Hi5 Expression) • Substrate: L-α-lysophosphatidylcholine (chicken egg)); Avanti Polar Lipids #830071 P • Standard: C14 LPA, Avanti Polar Lipids, Cat #857120P • Detection reagent: Amplex Red reagent; Invitrogen #A12222; dissolved in 1.923 ml of DMSO peroxidase type VI-A (horseradish) from Sigma #P6782; dissolved in 7.45 ml of test buffer, choline oxidase; Sigma #C5896; dissolved in 2.47 ml of test buffer • Detection reagent mix: 1:100 dilution of Amplex Red reagent in test buffer • Test buffer: 200 mM Tris HCl, Merck, Cat #1.08219, pH 7.9, 0.1% of BSA, lipid-free, Roche Cat #775835

| IC50 | SMILES |
| --- | --- |
| > 10 µM | Cc1cccc(C)c1NC(=O)Nc1[nH]c(-c2ccc(OCC(=O)O)cc2)nc1C(N)=O [Compound A48, (4-{4-Carbamoyl-5-[3-(2,6-dimethylphenyl)-ureido]-1H-imidazol-2-yl}phenoxy)acetic acid] |
| 1 to 10 µM | NC(=O)c1nc(-c2ccc(OCC(=O)O)cc2)[nH]c1NC(=O)Nc1cccc(C(F)(F)F)c1 [Compound A49, (4-{4-Carbamoyl-5-[3-(3-trifluoromethylphenyl)-ureido]-1H-imidazol-2-yl}phenoxy)acetic acid] |
| 1 to 10 µM | NC(=O)c1nc(-c2ccc(OCC(=O)O)cc2)[nH]c1NC(=O)Nc1ccc(C(F)(F)F)cc1 [Compound A50, (4-{4-Carbamoyl-5-[3-(4-trifluoromethylphenyl)-ureido]-1H-imidazol-2-yl}phenoxy)acetic acid] |
| 1 to 10 µM | CC(C)c1ccc(NC(=O)Nc2[nH]c(-c3ccc(OCC(=O)O)cc3)nc2C(N)=O)cc1 [Compound A51, (4-{4-Carbamoyl-5-[3-(4-isopropylphenyl)ureido]-1H-imidazol-2-yl}phenoxy)acetic acid] |
| > 10 µM | CCCCc1ccc(NC(=O)Nc2[nH]c(-c3ccc(OCC(=O)O)cc3)nc2C(N)=O)cc1 [Compound A52, (4-{5-[3-(4-Butylphenyl)ureido]-4-carbamoyl-1H-imidazol-2-yl}phenoxy)acetic acid] |
| > 10 µM | Cc1ccc(NC(=O)Nc2[nH]c(-c3ccc(OCC(=O)O)cc3)nc2C(N)=O)cc1 [Compound A53, {4-[4-Carbamoyl-5-(3-p-tolylureido)-1H-imidazol 2-yl]phenoxy}acetic acid] |
| 1 to 10 µM | CCc1ccc(NC(=O)Nc2[nH]c(-c3ccc(OCC(=O)O)cc3)nc2C(N)=O)cc1 [Compound A54, (4-{4-Carbamoyl-5-[3-(4-ethylphenyl)ureido]-1H-imidazol-2-yl}phenoxy)acetic acid] |
| 1 to 10 µM | NC(=O)c1nc(-c2ccc(OCC(=O)O)cc2)[nH]c1NC(=O)Nc1cc(C(F)(F)F)ccc1F [Compound A55, (4-{4-Carbamoyl-5-[3-(2-fluoro-5-trifluoromethyl-phenyl)ureido]-1H-imidazol-2-yl}phenoxy)acetic acid] |
| 1 to 10 µM | NC(=O)c1nc(COc2ccc(CC(=O)O)cc2)[nH]c1NC(=O)Nc1ccc(C(F)(F)F)cc1 [Compound A56, (4-{4-Carbamoyl-5-[3-(4-trifluoromethylphenyl)-ureido]-1H-imidazol-2-ylmethoxy}phenyl)acetic acid] |
| 1 to 10 µM | CC(C)c1ccc(NC(=O)Nc2[nH]c(COc3ccc(CC(=O)O)cc3)nc2C(N)=O)cc1 [Compound A57, (4-{4-Carbamoyl-5-[3-(4-isopropylphenyl)ureido]-1H-imidazol-2-ylmethoxy}phenyl)acetic acid] |
| > 10 µM | Cc1ccc(NC(=O)Nc2[nH]c(COc3ccc(CC(=O)O)cc3)nc2C(N)=O)cc1 [Compound A58, {4-[4-Carbamoyl-5-(3-p-tolylureido)-1H-imidazol 2-ylmethoxy]phenyl}acetic acid] |
| > 10 µM | NC(=O)c1nc(COc2ccc(CC(=O)O)cc2)[nH]c1NC(=O)Nc1ccc(Cl)cc1 [Compound A59, (4-{4-Carbamoyl-5-[3-(4-chlorophenyl)ureido]-1H-imidazol-2-ylmethoxy}phenyl)acetic acid] |
| 1 to 10 µM | Cc1ccc(NC(=O)Nc2[nH]c(COc3ccc(CC(=O)O)cc3)nc2C(N)=O)c(C)c1 [Compound A60, (4-{4-Carbamoyl-5-[3-(2,4-dimethylphenyl)-ureido]-1H-imidazol-2-ylmethoxy}phenyl)acetic acid] |
| 1 to 10 µM | CCc1ccc(NC(=O)Nc2[nH]c(COc3ccc(CC(=O)O)cc3)nc2C(N)=O)cc1 [Compound A61, (4-{4-Carbamoyl-5-[3-(4-ethylphenyl)ureido]-1H-imidazol-2-ylmethoxy}phenyl)acetic acid] |
| 1 to 10 µM | Cc1cc(Cl)ccc1NC(=O)Nc1[nH]c(COc2ccc(CC(=O)O)cc2)nc1C(N)=O [Compound A62, (4-{4-Carbamoyl-5-[3-(4-chloro-2-methylphenyl)-ureido]-1H-imidazol-2-ylmethoxy}phenyl)acetic acid] |
| > 10 µM | COc1cc(NC(=O)Nc2[nH]c(COc3ccc(CC(=O)O)cc3)nc2C(N)=O)cc(OC)c1 [Compound A63, (4-{4-Carbamoyl-5-[3-(3,5-dimethoxyphenyl)-ureido]-1H-imidazol-2-ylmethoxy}phenyl)acetic acid] |
| > 10 µM | NC(=O)c1nc(COc2ccc(CC(=O)O)cc2)[nH]c1NC(=O)Nc1ccc(F)c(C(F)(F)F)c1 [Compound A64, (4-{4-Carbamoyl-5-[3-(4-fluoro-3-trifluoromethyl-phenyl)ureido]-1 H-imidazol-2-ylmethoxy}phenyl)-acetic acid] |

Continued, compound first:

| SMILES | IC50 |
| --- | --- |
| CCc1cccc(C)c1NC(=O)Nc1[nH]c(Cc2ccc(C(=O)O)o2)nc1C(N)=O [Compound A32, 5-{4-Carbamoyl-5-[3-(2-ethyl-6-methylphenyl)-ureido]-1H-imidazol-2-ylmethyl}furan-2-carboxylic acid] | > 10 µM |
| NC(=O)c1nc(Cc2ccc(C(=O)O)o2)[nH]c1NC(=O)Nc1ccc2ccccc2c1 [Compound A33, 5-[4-Carbamoyl-5-(3-naphthalen-2-ylureido)-1H-imidazol-2-ylmethyl]furan-2-carboxylic acid] | > 10 µM |
| NC(=O)c1nc(Cc2ccc(OCC(=O)O)cc2)[nH]c1NC(=O)Nc1ccc(F)cc1 [Compound A36, (4-{4-Carbamoyl-5-[3-(4-fluorophenyl)ureido]-1H-imidazol-2-ylmethyl}phenoxy)acetic acid] | > 10 µM |
| NC(=O)c1nc(Cc2ccc(OCC(=O)O)cc2)[nH]c1NC(=O)Nc1cccc(C(F)(F)F)c1 [Compound A37, (4-{4-Carbamoyl-5-[3-(3-trifluoromethylphenyl)-ureido]-1H-imidazol-2-ylmethyl}phenoxy)acetic acid] | > 10 µM |
| NC(=O)c1nc(Cc2ccc(OCC(=O)O)cc2)[nH]c1NC(=O)Nc1ccc(C(F)(F)F)cc1 [Compound A38, (4-{4-Carbamoyl-5-[3-(4-trifluoromethylphenyl)-ureido]-1H-imidazol-2-ylmethyl}phenoxy)acetic acid] | 1 to 10 µM |
| CCCCc1ccc(NC(=O)Nc2[nH]c(Cc3ccc(OCC(=O)O)cc3)nc2C(N)=O)cc1 [Compound A39, (4-{5-[3-(4-Butylphenyl)ureido]-4-carbamoyl-1H-imidazol-2-ylmethyl}phenoxy)acetic acid] | 1 to 10 µM |
| Cc1ccc(NC(=O)Nc2[nH]c(Cc3ccc(OCC(=O)O)cc3)nc2C(N)=O)cc1 [Compound A40, {4-[4-Carbamoyl-5-(3-p-tolylureido)-1H-imidazol 2-ylmethyl]phenoxy}acetic acid] | 1 to 10 µM |
| NC(=O)c1nc(Cc2ccc(OCC(=O)O)cc2)[nH]c1NC(=O)Nc1ccc(Cl)cc1 [Compound A41, (4-{4-Carbamoyl-5-[3-(4-chlorophenyl)ureido]-1H-imidazol-2-ylmethyl}phenoxy)acetic acid] | 1 to 10 µM |
| CCc1ccc(NC(=O)Nc2[nH]c(Cc3ccc(OCC(=O)O)cc3)nc2C(N)=O)cc1 [Compound A42, (4-{4-Carbamoyl-5-[3-(4-ethylphenyl)ureido]-1H imidazol-2-ylmethyl}phenoxy)acetic acid] | 1 to 10 µM |
| CCCCCc1ccc(NC(=O)Nc2[nH]c(Cc3ccc(OCC(=O)O)cc3)nc2C(N)=O)cc1 [Compound A43, (4-{4-Carbamoyl-5-[3-(4-pentylphenyl)ureido]-1 H-imidazol-2-ylmethyl}phenoxy)acetic acid] | 1 to 10 µM |
| NC(=O)c1nc(Cc2ccc(OCC(=O)O)cc2)[nH]c1NC(=O)Nc1cc(C(F)(F)F)ccc1F [Compound A44, (4-{4-Carbamoyl-5-[3-(2-fluoro-5-trifluoromethyl-phenyl)ureido]-1H-imidazol-2-ylmethyl}phenoxy)-acetic acid] | > 10 µM |
| NC(=O)c1nc(Cc2ccc(OCC(=O)O)cc2)[nH]c1NC(=O)Nc1ccc(Oc2ccccc2)cc1 [Compound A45, (4-{4-Carbamoyl-5-[3-(4-phenoxyphenyl)ureido]-1H-imidazol-2-ylmethyl}phenoxy)acetic acid] | > 10 µM |
| NC(=O)c1nc(-c2ccc(OCC(=O)O)cc2)[nH]c1NC(=O)Nc1ccc(F)cc1 [Compound A46, (4-{4-Carbamoyl-5-[3-(4-fluorophenyl)ureido]-1H-imidazol-2-yl}phenoxy)acetic acid] | > 10 µM |
| NC(=O)c1nc(-c2ccc(OCC(=O)O)cc2)[nH]c1NC(=O)Nc1ccccc1Cl [Compound A47, (4-{4-Carbamoyl-5-[3-(2-chlorophenyl)ureido]-1H-imidazol-2-yl}phenoxy)acetic acid] | > 10 µM |
